These results are taken from patent US20170275344A1, “POLYPEPTIDES AND USES THEREOF AS A DRUG FOR TREATMENT OF AUTOIMMUNE DISORDERS” (Compugen Ltd., priority 2014, published 2017).

“Also recorded” adds a separate entry of the source.

The subject of one experiment is male DBA-1 mice. The experiment is described as follows: Established collagen-induced arthritis (CIA), therapeutic regimen. It counts as in vivo, mouse. As for the experimental part: Bovine type II collagen (CII) (RUNMC in house production, batch 03-04-08) at a concentration of 2 mg/ml in acetic acid 0.05M was emulsified in equal volumes of Freund's complete adjuvant (2 mg/ml of Mycobacterium tuberculosis strain H37Ra; Difco, Detroit, Mich.).
On day 0, 10-12 week old male DBA-1 mice (Janvier Elevage, France) (n=95) were immunized i.d. at the base of the tail with 100 μg of bovine CII. On day 21, mice received an intraperitoneal booster injection of 50 μg of CII dissolved in phosphate buffered saline (PBS), and the onset of arthritis occurred a few days after this booster.
Joint inflammation in each paw was scored visually, using a scale of 0-2 per paw with a maximal score of 8 per animal: 0=non inflamed, 1=mild inflammation, 1.5=marked inflammation, and 2=severe inflammation. Scoring was performed three times a week.
Treatment was started in established CIA early after onset of disease (i.e. therapeutic regimen), when the macroscopic scores per animal were between 0.25 and 1.25 (on a scale of 0-8). The i.p. injections were given three times per week for two weeks, after which the study was terminated and mice were terminally bled to collect serum. Thereafter, the knee and ankle joints were collected and stored in formalin. Histology was scored for inflammation and destruction on an arbitrary scale of 0-3, for five different parameters: • Joint inflammation • Cartilage proteoglycan (PG) depletion • Chondrocyte death • Cartilage erosion • Bone erosion
1. Negative control: PBS 2. Negative control mIgG2A (Bioxcell, BE0085): 10 mg/kg 3. C1ORF32 ECD-Fc (SEQ ID NO:42): 10 mg/kg 4. C1ORF32 ECD-Fc (SEQ ID NO:42): 5 mg/kg 5. Positive control: Enbrel (Wyeth, F01421) 5 mg/kg
Joints were fixed for at least 4 days in 4% formaldehyde, decalcified in 5% formic acid, and subsequently dehydrated and embedded in paraffin. Standard frontal sections of 7 μm were mounted on SuperFrost slides (Menzel-Glaser, Braunschweig, Germany). Haematoxylin and eosin (H&E) staining was performed to study joint inflammation. The severity of inflammation in the joints was scored on a scale of 0-3 (0=no cells, 1=mild cellularity, 2=moderate cellularity, and 3=maximal cellularity). To study proteoglycan (PG) depletion from the cartilage matrix, sections were stained with safranin O (SO) followed by counterstaining with fast green. Depletion of PG was determined using an arbitrary scale of 0-3, ranging from normal, fully stained cartilage to destained cartilage, fully depleted of PGs. Chondrocyte death was scored on a scale of 0-3 ranging from no loss of chondrocyte nuclei to complete empty cartilage surface. The degree of cartilage surface erosion was scored on a scale of 0-3, ranging from no damage to complete loss of articular cartilage. Bone destruction was graded separately on a scale of 0-3, ranging from no damage to the complete loss of bone structure. Histopathological changes in the joint were scored on three semiserial sections of the joint spaced 70 μm apart. Scoring was performed in a blindfolded manner.
Statistical analysis: Disease course data was analyzed using one-way ANOVA with repeated measures, with a Bonferroni's post-test of selected pairs to determine statistical differences between C1ORF32 ECD-Fc (SEQ ID NO:42) and Enbrel treated mice, each as compared to Control Ig (IgG2a) treated group.

Experiment [1] has as its system healthy human skin transplanted onto beige-SCID mice. The experiment is described as follows: Humanized psoriasis model: healthy human skin xenotransplants on beige-SCID mice injected with psoriatic patients' PBMCs. The format is in vivo, mouse. An excerpt: In this model, psoriasis is induced in xenotransplants of healthy human skin transplanted onto beige severe combined immunodeficiency (SCID) mice followed by intradermal (i.d.) injection of IL-2 enriched Peripheral Blood Mononuclear Cells (PBMCs) isolated from blood of psoriasis patients (Nickoloff, 1995; Wrone-Smith, 1996 Gilhar et al., 2002, 2006, 2011). The activity of these compounds was compared to that of Enbrel, a TNF inhibitor which is an approved biological drug for treatment of psoriasis. As a control for model robustness, we used dexamethasone, a steroid with suppressive effects on inflammatory cytokines and chemokines such as TNF-alpha and interferon-gamma which cause severe psoriasis. All treatments were administered intradermally, except for dexamethasone which was given topically.
Study Protocol: A) Healthy human skin pieces with a width of 0.4 mm and surface area of 1.5×1.5 cm were provided from residual skin of routine plastic surgery procedures from the Plastic Surgery Department of the Rambam Medical Center, Israel. In addition, 20 mL blood samples were taken from psoriatic patients. B) Seventy (70) beige-severe combined immunodeficient mice (SCID) (weight˜20-25 g) were included in this study. Normal healthy human donor skin was transplanted onto the beige-SCID mice as previously described (Nickoloff et al., 1995; Wrone-Smith, 1996; Gilhar et al., 2002, 2006, 2011; Kalish et al., 2009) and the mice were divided into 7 groups. C) Peripheral Blood Mononuclear Cells (PBMCs) isolated from psoriatic patients' blood were cultured in the presence of IL-2 [Prospec, 100 U/mL of RPMI 1640 media, 10% human AB serum (Sigma, St. Louis, Mo.), 1% glutamine, 1% antibiotics (media components; Biological Industries, Kibbutz Beit Haemeck, Israel)] for 14 days, as previously described (Gilhar et al, 2002). D) Four weeks following engraftment, each mouse was injected intra-dermally (i.d.) into the grafted skin lesion, with 1×10^7 activated allogeneic enriched PBMCs from psoriatic patients (FIG. 20). Cells from different psoriasis patients were equally distributed between treatment groups so that each patient is represented in each treatment group. E) On the day of PBMCs injection into the skin grafts, mice were divided randomly into treatment groups (n=9-10 mice per group) and administration of all drugs started (FIG. 20). All tested compounds including the vehicle were given intradermally (intralesional), three times a week, except for dexamethasone which was given topically for 14 consecutive days (Table 3).
F) Twenty eight days after starting the injections and treatment, skin was harvested (FIG. 20). Grafts were analyzed for the following psoriatic parameters by histology: epidermal thickening (acanthosis), suprapapillary epidermal thinning (papillomatosis), hyperkeratosis, parakeratosis, orthokeratosis, agranulosis-hypogranulosis, appearance of neutrophils in the upper spinous layer or in the corneal cell layer—Munro microabscess, regular elongation of rete ridges, angiogenesis, edema and dilated tortuous blood vessels in the dermal papilla and mononuclear cell infiltrate in the papillary dermis. Epidermal thickness was measured as detailed below, and HLA-DR, ICAM-1, Ki-67 and immune infiltrates (anti-CD3 stain) were evaluated by immunohistochemistry (IHC).
The entire skin graft was excised and placed in 10% formal saline overnight. Then, the specimens were place in 70% ethanol and were embedded according to the standard H&E protocol. Histological assessment of the skin grafts was performed by light microscopy and evaluated by two blinded observers [the second observer evaluated random slides (about 25% of all slides) to compare the data obtained by the first observer. […] Epidermal thickness was determined with an ocular micrometer at a minimum of 50 points along the epidermis selected to represent points of maximal and minimal thickness.
Representative grafts were allocated for IHC analysis. […]

A further experiment deals with psoriasis patients. Particulars: cited from earlier work.
Where [2] appears, read: 28 days after start of treatment.

For the substance Enbrel, the “bone erosions (histology)” value in the experiment with male DBA-1 mice (5 mg/kg, day 14) is on record as “significant reduction of bone erosions”. Also, in the experiment with male DBA-1 mice (5 mg/kg, day 14), the “other histological parameters of inflammation and cartilage damage” value is on record as “only a trend for protection”. Moreover, the “arthritis (macroscopic) scores” value with male DBA-1 mice (positive control, 5 mg/kg i.p. 3x/wk for 2 wks) is given as “not as potent in reducing the arthritis scores as expected”. The “Healthy Skin (number of grafts)” value in experiment [1] (setting [2]) is 3/9. In addition, the “Psoriasiform Skin (number of affected grafts, histological evaluation)” value in experiment [1] (setting [2]) is 6/9. Also, the “Total No. of Healthy Grafts (%)” value in experiment [1] (setting [2]) is 33%. Also, in experiment [1] (IHC, vs vehicle treated group), the “proliferation index (% Ki-67 positive cells) in the xenografted skin” value is on record as “trend of decrease in proliferation index”. For the same substance, the “Epidermal thickness of graft” value was determined as 683 μm in experiment [1] (Source of graft (Patient)); 658 μm in experiment [1] (Source of graft (Patient) B); 770 μm in experiment [1] (Source of graft (Patient) C); 679 μm in experiment [1] (Source of graft (Patient) D); 678 μm in experiment [1] (Source of graft (Patient) E); 830 μm in experiment [1] (Source of graft (Patient) G1). In addition, the “Epidermal thickness of graft” value in experiment [1] (Source of graft (Patient) H) came out at 496 μm; in experiment [1] (Source of graft (Patient) K), 296 μm; in experiment [1] (Source of graft (Patient) P) it was 492 μm. Further, in experiment [1] (mean of 9-10 mice, PBS mean 682), the “Epidermal thickness of grafts, Mean” value worked out at 620 μm. In experiment [1] (one-tailed t-Test), the “epidermal thickness compared with the vehicle-treated group” value is reported as “no substantial effect on epidermal thickness; also recorded: no significant reduction in epidermal thickness”. Further, the “patients achieving 75% improvement in the psoriasis area-and-severity index (PASI 75)” value in the experiment with psoriasis patients (at week 12) was “Forty nine”. The “patients achieving PASI 90” value in the experiment with psoriasis patients (clinical trials) is recorded as 22%.
